Assay results published in patent publication US20230233569A1 (Revolution Medicines, Inc., priority 2020, published 2023).

What was measured:
KRAS G13C = KRAS G13C (Homo sapiens, UniProt P01116+P62937, G13C); test: Disruption of BRAF RBD interaction with Ras (FRET / MOA assay, with Cyclophilin A); assay type: biochemical; conditions: read-out: KRAS G13C FRET data, IC50
Method in brief: (§1)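 Measured via TR-FRET after 3 h at 25 °C with compound (30 μM top, threefold serial steps, ten concentrations) plus K-Ras, Cyclophilin A and BRAF RBD, followed by 1.5 h with anti-His europium (10 nM) and anti-GST allophycocyanin (50 nM). Signal loss versus DMSO gave IC50.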

KRAS G12D = KRAS G12D (Homo sapiens, UniProt P01116+P62937, G12D); test: as above; assay type: biochemical; conditions: read-out: KRAS G12D FRET data, IC50
Method in brief: as §1

KRAS G12V = KRAS G12V (Homo sapiens, UniProt P01116+P62937, G12V); test: as above; assay type: biochemical; conditions: KRAS G12V; read-out: KRAS G12V FRET data IC50
Method in brief: as §1

KRAS G12C = KRAS G12C (Homo sapiens, UniProt P01116+P62937, G12C); test: as above; assay type: biochemical; conditions: read-out: KRAS G12C FRET data, IC50
Method in brief: as §1

KRAS G12S = KRAS G12S (Homo sapiens, UniProt P01116+P62937, G12S); test: as above; assay type: biochemical; conditions: read-out: KRAS G12S FRET data, IC50
Method in brief: as §1

NRAS G12C = NRAS G12C (Homo sapiens, UniProt P01111+P62937, G12C); test: as above; assay type: biochemical; conditions: NRAS G12C; read-out: NRAS G12C FRET data IC50
KRAS G13D = KRAS G13D (Homo sapiens, UniProt P01116+P62937, G13D); test: as above; assay type: biochemical; conditions: KRAS G13D; read-out: KRAS G13D FRET data IC50
Method in brief: as §1

KRAS WT = KRAS WT (Homo sapiens, UniProt P01116+P62937); test: as above; assay type: biochemical; conditions: KRAS WT; read-out: KRAS WT FRET data IC50
Method in brief: as §1

KRAS Q61H = KRAS Q61H (Homo sapiens, UniProt P01116+P62937, Q61H); test: as above; assay type: biochemical; conditions: KRAS Q61H; read-out: KRAS Q61H FRET data IC50
Method in brief: (§2)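 IC50 reflects compound-driven Ras:Cyclophilin A ternary complex displacing BRAF RBD, read as lowered TR-FRET ratio relative to DMSO after Eu anti-His (10 nM) and APC anti-GST (50 nM) detection for 1.5 h. Prior incubation 3 h, 25° C, with 12.5 nM GMPPNP-loaded Ras, 50 nM BRAF RBD, 25 μM Cyclophilin A; top compound 30 μM.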

NRAS Q61R = NRAS Q61R (Homo sapiens, UniProt P01111+P62937, Q61R); test: as above; assay type: biochemical; conditions: NRAS Q61R; read-out: NRAS Q61R FRET data IC50
Method in brief: as §2

NRAS Q61K = NRAS Q61K (Homo sapiens, UniProt P01111+P62937, Q61K); test: as above; assay type: biochemical; conditions: NRAS Q61K; read-out: NRAS Q61K FRET data IC50
Method in brief: as §2

NRAS WT = NRAS WT (Homo sapiens, UniProt P01111+P62937); test: as above; assay type: biochemical; conditions: NRAS WT; read-out: NRAS WT FRET data IC50
Method in brief: as §2

Capan-1 (K-Ras G12V) = test: CellTiter-Glo cell viability assay, 5-day treatment; assay type: cell-based; conditions: Homo sapiens, CAPAN-1, 120 h, 5-day treatment; read-out: Capan-1 Cell Viability assay data (K-Ras G12V, IC50)
Method in brief: (§3)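 Compounds were dispensed directly onto seeded cells and incubated for 5 days, then plates were equilibrated to room temperature for about 30 minutes before luminescence reading. Signals were expressed as percent of the mean DMSO control and fitted with a four-parameter logistic curve.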

NCI-H358 (K-Ras G12C) = test: as above; assay type: cell-based; conditions: Homo sapiens, NCI-H358, 120 h, 5-day treatment; read-out: H358 Cell Viability assay data (K-Ras G12C, IC50)
Method in brief: as §3

Sequence of NRAS G12C (P01111 whole entry G12C): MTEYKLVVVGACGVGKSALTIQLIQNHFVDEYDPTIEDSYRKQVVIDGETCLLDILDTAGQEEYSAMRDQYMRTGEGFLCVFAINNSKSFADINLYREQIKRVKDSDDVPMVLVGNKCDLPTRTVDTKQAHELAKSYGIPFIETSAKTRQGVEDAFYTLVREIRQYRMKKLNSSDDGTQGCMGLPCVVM
Sequence of NRAS G12C (P62937 whole entry): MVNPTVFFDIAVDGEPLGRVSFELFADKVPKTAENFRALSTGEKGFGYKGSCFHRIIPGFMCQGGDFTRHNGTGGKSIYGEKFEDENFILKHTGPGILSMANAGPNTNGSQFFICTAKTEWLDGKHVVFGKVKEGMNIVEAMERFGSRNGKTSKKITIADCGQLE
Sequence of NRAS Q61K (P01111 whole entry Q61K): as the sequence (P01111 whole entry G12C) above, with C12G, Q61K counted along it
Sequence of NRAS Q61K (P62937 whole entry): as the sequence (P62937 whole entry) above
Sequence of NRAS WT (P01111 whole entry): as the sequence (P01111 whole entry G12C) above, with C12G counted along it
Sequence of NRAS WT (P62937 whole entry): as the sequence (P62937 whole entry) above
Sequence of KRAS G12D (P01116 1-169 isoform P01116-2 G12D limits assumed): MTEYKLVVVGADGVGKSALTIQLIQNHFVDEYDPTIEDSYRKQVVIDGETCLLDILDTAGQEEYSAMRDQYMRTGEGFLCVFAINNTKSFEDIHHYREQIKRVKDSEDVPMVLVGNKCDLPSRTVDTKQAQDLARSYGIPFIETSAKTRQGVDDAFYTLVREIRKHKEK
Sequence of KRAS G12D (P62937 whole entry): as the sequence (P62937 whole entry) above
Sequence of NRAS Q61R (P01111 whole entry Q61R): as the sequence (P01111 whole entry G12C) above, with C12G, Q61R counted along it
Sequence of NRAS Q61R (P62937 whole entry): as the sequence (P62937 whole entry) above
Sequence of KRAS Q61H (P01116 1-169 isoform P01116-2 Q61H limits assumed): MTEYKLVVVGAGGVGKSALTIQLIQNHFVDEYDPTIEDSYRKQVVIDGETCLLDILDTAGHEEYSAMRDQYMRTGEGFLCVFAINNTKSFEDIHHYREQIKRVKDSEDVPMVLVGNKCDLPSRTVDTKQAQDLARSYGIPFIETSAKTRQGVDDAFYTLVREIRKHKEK
Sequence of KRAS Q61H (P62937 whole entry): as the sequence (P62937 whole entry) above
Sequence of KRAS G12S (P01116 1-169 isoform P01116-2 G12S limits assumed): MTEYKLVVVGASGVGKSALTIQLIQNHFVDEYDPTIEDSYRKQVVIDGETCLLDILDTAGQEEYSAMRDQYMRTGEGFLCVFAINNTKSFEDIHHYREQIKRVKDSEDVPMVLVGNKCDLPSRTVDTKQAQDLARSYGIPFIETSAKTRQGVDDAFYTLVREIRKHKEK
Sequence of KRAS G12S (P62937 whole entry): as the sequence (P62937 whole entry) above
Sequence of KRAS G12C (P01116 1-169 isoform P01116-2 G12C): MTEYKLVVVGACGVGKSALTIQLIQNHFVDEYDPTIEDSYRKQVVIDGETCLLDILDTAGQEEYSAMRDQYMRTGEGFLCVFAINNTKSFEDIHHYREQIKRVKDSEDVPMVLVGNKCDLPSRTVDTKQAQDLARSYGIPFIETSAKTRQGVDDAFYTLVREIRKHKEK
Sequence of KRAS G12C (P62937 whole entry): as the sequence (P62937 whole entry) above
Sequence of KRAS G13C (P01116 1-169 isoform P01116-2 G13C): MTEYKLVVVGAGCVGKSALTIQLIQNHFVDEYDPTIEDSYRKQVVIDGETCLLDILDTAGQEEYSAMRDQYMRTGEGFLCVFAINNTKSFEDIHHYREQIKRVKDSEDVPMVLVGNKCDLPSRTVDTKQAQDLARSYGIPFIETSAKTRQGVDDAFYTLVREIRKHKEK
Sequence of KRAS G13C (P62937 whole entry): as the sequence (P62937 whole entry) above
Sequence of KRAS WT (P01116 1-169 isoform P01116-2 limits assumed): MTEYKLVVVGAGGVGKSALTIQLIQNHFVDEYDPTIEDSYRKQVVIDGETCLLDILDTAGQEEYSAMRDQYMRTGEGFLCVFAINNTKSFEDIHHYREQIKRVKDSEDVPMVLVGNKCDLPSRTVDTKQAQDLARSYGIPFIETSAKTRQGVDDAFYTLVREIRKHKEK
Sequence of KRAS WT (P62937 whole entry): as the sequence (P62937 whole entry) above
Sequence of KRAS G13D (P01116 1-169 isoform P01116-2 G13D limits assumed): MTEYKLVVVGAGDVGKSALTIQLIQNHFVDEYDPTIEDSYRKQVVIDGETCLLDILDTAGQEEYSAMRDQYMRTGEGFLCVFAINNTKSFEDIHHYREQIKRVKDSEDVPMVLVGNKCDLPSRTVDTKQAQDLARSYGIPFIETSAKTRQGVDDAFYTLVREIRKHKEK
Sequence of KRAS G13D (P62937 whole entry): as the sequence (P62937 whole entry) above
Sequence of KRAS G12V (P01116 1-169 isoform P01116-2 G12V limits assumed): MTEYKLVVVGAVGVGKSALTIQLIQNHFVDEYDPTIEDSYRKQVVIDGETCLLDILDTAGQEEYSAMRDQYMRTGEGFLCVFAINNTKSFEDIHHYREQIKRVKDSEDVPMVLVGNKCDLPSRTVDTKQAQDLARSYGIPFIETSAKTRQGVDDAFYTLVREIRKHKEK
Sequence of KRAS G12V (P62937 whole entry): as the sequence (P62937 whole entry) above

IC50 (KRAS G13C) [nM] | IC50 (KRAS G12D) [nM] | IC50 (KRAS G12V) [nM] | IC50 (KRAS G12C) [nM] | IC50 (KRAS G12S) [nM] | IC50 (NRAS G12C) [nM] | IC50 (KRAS G13D) [nM] | IC50 (KRAS WT) [nM] | IC50 (KRAS Q61H) [nM] | IC50 (NRAS Q61R) [nM] | IC50 (NRAS Q61K) [nM] | IC50 (NRAS WT) [nM] | IC50 (NCI-H358 (K-Ras G12C)) [nM] | Compound | IC50 (Capan-1 (K-Ras G12V)) [nM]
100 to 1000 | 100 to 1000 | 100 to 1000 | 10 to 100 | 100 to 1000 | 10 to 100 | 100 to 1000 | 100 to 1000 | 10 to 100 | 100 to 1000 | 10 to 100 | 100 to 1000 | 10 to 100 | CCn1c(-c2cccnc2[C@H](C)OC)c2c3cc(ccc31)-c1csc(n1)C[C@H](NC(=O)[C@H](C(C)C)N(C)C(=O)N1CC([C@@H](C)NC)C1)C(=O)N1CCC[C@H](N1)C(=O)OCC(C)(C)C2 (atropisomer, axis not shown) [Example A488] | 100 to 1000
100 to 1000 | 1000 to 10000 | 100 to 1000 | 10 to 100 | 100 to 1000 | 10 to 100 | 100 to 1000 | 100 to 1000 | 100 to 1000 | 100 to 1000 | 10 to 100 | 100 to 1000 | 10 to 100 | CCn1c(-c2cccnc2[C@H](C)OC)c2c3cc(ccc31)-c1csc(n1)[C@@H](O)[C@H](NC(=O)[C@H](C(C)C)N(C)C(=O)N1CC(N(C)C)C1)C(=O)N1CCC[C@H](N1)C(=O)OCC(C)(C)C2 (atropisomer, axis not shown) [Example A489] | 100 to 1000
100 to 1000 | 100 to 1000 | 100 to 1000 | 10 to 100 | 100 to 1000 | 10 to 100 | 100 to 1000 | 10 to 100 | 10 to 100 | 10 to 100 | 10 to 100 | 10 to 100 | < 10 | CCn1c(-c2cc(C3CCN(C)CC3)cnc2[C@H](C)OC)c2c3cc(ccc31)-c1csc(n1)C[C@H](NC(=O)[C@H](C(C)C)N(C)C(=O)N1CCOCC1)C(=O)N1CCC[C@H](N1)C(=O)OCC(C)(C)C2 (atropisomer, axis not shown) [Example A505] | < 10
100 to 1000 | 1000 to 10000 | 100 to 1000 | 10 to 100 | 100 to 1000 | 10 to 100 | 100 to 1000 | 100 to 1000 | 10 to 100 | 100 to 1000 | 10 to 100 | 100 to 1000 | 10 to 100 | CCn1c(-c2cccnc2[C@H](C)OC)c2c3cc(ccc31)-c1csc(n1)C[C@H](NC(=O)[C@H](C(C)C)N(C)C(=O)N1CC3(CC(O)C3)C1)C(=O)N1CCC[C@H](N1)C(=O)OCC(C)(C)C2 (atropisomer, axis not shown) [Example A510] | 10 to 100
100 to 1000 | 100 to 1000 | 100 to 1000 | 100 to 1000 | 100 to 1000 | 100 to 1000 | 100 to 1000 | 100 to 1000 | 10 to 100 | 10 to 100 | 10 to 100 | 100 to 1000 | 10 to 100 | CCn1c(-c2cccnc2[C@H](C)OC)c2c3cc(ccc31)-c1csc(n1)C[C@H](NC(=O)[C@H](C(C)C)N(C)C(=O)N1CCCC13CCOCC3)C(=O)N1CCC[C@H](N1)C(=O)OCC(C)(C)C2 (atropisomer, axis not shown) [Example A520] | 10 to 100
100 to 1000 | 1000 to 10000 | 100 to 1000 | 100 to 1000 | 100 to 1000 | 100 to 1000 | 1000 to 10000 | 100 to 1000 | 100 to 1000 | 100 to 1000 | 10 to 100 | 100 to 1000 | 10 to 100 | CCn1c(-c2cccnc2[C@H](C)OC)c2c3cc(ccc31)-c1csc(n1)C[C@H](NC(=O)[C@H](C(C)C)N(C)C(=O)N1CC3(CCCO3)C1)C(=O)N1CCC[C@H](N1)C(=O)OCC(C)(C)C2 (atropisomer, axis not shown) [Example A522] | 100 to 1000
100 to 1000 | 100 to 1000 | 100 to 1000 | 10 to 100 | 100 to 1000 | 10 to 100 | 100 to 1000 | 100 to 1000 | 10 to 100 | 100 to 1000 | 10 to 100 | 100 to 1000 | 10 to 100 | CCn1c(-c2cccnc2[C@H](C)OC)c2c3cc(ccc31)-c1csc(n1)C[C@H](NC(=O)[C@H](C(C)C)N(C)C(=O)N1CC3(CC3)C1)C(=O)N1CCC[C@H](N1)C(=O)OCC(C)(C)C2 (atropisomer, axis not shown) [Example A523] | 10 to 100
10 to 100 | 100 to 1000 | 10 to 100 | 10 to 100 | 10 to 100 | 10 to 100 | 100 to 1000 | 10 to 100 | 10 to 100 | 10 to 100 | 10 to 100 | 10 to 100 | < 10 | CCn1c(-c2cc(N3CCN(C)CC3)cnc2[C@H](C)OC)c2c3cc(ccc31)-c1csc(n1)C[C@H](NC(=O)[C@H](C1CCCC1)N(C)C(=O)N(C)C)C(=O)N1CCC[C@H](N1)C(=O)OCC(C)(C)C2 (atropisomer, axis not shown) [Example A526] | < 10
100 to 1000 | 100 to 1000 | 100 to 1000 | 10 to 100 | 100 to 1000 | 10 to 100 | 100 to 1000 | 10 to 100 | 10 to 100 | 10 to 100 | 10 to 100 | 10 to 100 | 10 to 100 | CCn1c(-c2cccnc2[C@H](C)OC)c2c3cc(ccc31)-c1csc(n1)C[C@H](NC(=O)[C@H](C(C)C)N(C)C(=O)N1CCCC13COC3)C(=O)N1CCC[C@H](N1)C(=O)OCC(C)(C)C2 (atropisomer, axis not shown) [Example A528] | 10 to 100
10 to 100 | 100 to 1000 | 10 to 100 | 10 to 100 | 10 to 100 | 10 to 100 | 10 to 100 | 10 to 100 | 10 to 100 | 10 to 100 | 10 to 100 | 10 to 100 | < 10 | CCn1c(-c2cc(N3CCN(C)CC3)cnc2[C@H](C)OC)c2c3cc(ccc31)-c1csc(n1)C[C@H](NC(=O)[C@H](C1CCCC1)N(C)C(=O)N1CCC1)C(=O)N1CCC[C@H](N1)C(=O)OCC(C)(C)C2 (atropisomer, axis not shown) [Example A529] | < 10

Compound | IC50 (KRAS G13C) [nM] | IC50 (KRAS G12D) [nM] | IC50 (KRAS G12V) [nM] | IC50 (KRAS G12C) [nM] | IC50 (KRAS G12S) [nM] | IC50 (NRAS G12C) [nM] | IC50 (KRAS G13D) [nM] | IC50 (KRAS WT) [nM] | IC50 (KRAS Q61H) [nM] | IC50 (NRAS Q61R) [nM] | IC50 (NRAS Q61K) [nM] | IC50 (NRAS WT) [nM] | IC50 (NCI-H358 (K-Ras G12C)) [nM] | IC50 (Capan-1 (K-Ras G12V)) [nM]
CCn1c(-c2cccnc2[C@H](C)OC)c2c3cc(ccc31)-c1csc(n1)C[C@H](NC(=O)[C@H](C(C)C)N(C)C(=O)N1CCC3(CN(C)C3)C1)C(=O)N1CCC[C@H](N1)C(=O)OCC(C)(C)C2 (atropisomer, axis not shown) [Example A503] | 100 to 1000 | 100 to 1000 | 100 to 1000 | 10 to 100 | 10 to 100 | 10 to 100 | 100 to 1000 | 10 to 100 | 10 to 100 | 10 to 100 | 10 to 100 | 10 to 100 | 10 to 100 | 10 to 100
